This note sets out measurements from publication doi:10.1101/2023.11.24.568596v1 (biorxiv, 2023).

Targets include JNK2 (Homo sapiens, UniProt P45984); CHK2 (Homo sapiens, UniProt O96017); CLK1 (Homo sapiens, UniProt P49759); PIM3 (Homo sapiens, UniProt Q86V86); MAPKAPK2 (Homo sapiens, UniProt P49137); EphA5 (Homo sapiens, UniProt P54756); CK2a2 (Homo sapiens, UniProt P19784); BRD4 (Homo sapiens, UniProt O60885); DYRK1A (Homo sapiens, UniProt Q13627); CK1d (Homo sapiens, UniProt P48730).
Conditions in all cases: binder
For another assay, the target named is T1, MYT1 (Homo sapiens, UniProt Q99640).
T1 sequence (Q99640 1-499): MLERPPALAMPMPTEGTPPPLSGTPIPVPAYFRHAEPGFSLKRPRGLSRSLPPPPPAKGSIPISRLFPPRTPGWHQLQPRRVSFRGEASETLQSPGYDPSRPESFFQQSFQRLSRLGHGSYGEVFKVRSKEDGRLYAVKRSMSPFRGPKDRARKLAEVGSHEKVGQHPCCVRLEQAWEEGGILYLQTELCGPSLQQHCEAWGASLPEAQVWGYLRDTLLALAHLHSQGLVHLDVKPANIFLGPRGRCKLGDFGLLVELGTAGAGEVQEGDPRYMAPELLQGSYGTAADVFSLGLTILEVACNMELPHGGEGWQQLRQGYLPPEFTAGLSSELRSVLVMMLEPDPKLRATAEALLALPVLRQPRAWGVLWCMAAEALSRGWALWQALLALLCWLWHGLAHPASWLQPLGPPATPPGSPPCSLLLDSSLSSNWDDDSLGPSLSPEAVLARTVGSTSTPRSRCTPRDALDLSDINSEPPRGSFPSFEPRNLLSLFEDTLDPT

A further assay has as its target T2, NEK2 (Homo sapiens, UniProt P51955).
T2 sequence (P51955 1-445): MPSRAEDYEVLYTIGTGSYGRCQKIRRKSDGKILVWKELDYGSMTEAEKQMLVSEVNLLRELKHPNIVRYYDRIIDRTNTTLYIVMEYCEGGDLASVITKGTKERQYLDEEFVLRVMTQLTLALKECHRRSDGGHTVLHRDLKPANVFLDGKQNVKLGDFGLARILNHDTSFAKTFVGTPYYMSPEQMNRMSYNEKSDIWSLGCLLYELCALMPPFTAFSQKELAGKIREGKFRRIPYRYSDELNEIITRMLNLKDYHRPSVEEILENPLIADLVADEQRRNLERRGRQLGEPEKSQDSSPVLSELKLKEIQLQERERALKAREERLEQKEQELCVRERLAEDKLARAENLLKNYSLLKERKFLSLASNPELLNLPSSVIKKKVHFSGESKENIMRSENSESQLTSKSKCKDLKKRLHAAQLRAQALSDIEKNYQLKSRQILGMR

In the next assay the target is T3, MST2 (Homo sapiens, UniProt Q13188).
T3 sequence (Q13188 1-491): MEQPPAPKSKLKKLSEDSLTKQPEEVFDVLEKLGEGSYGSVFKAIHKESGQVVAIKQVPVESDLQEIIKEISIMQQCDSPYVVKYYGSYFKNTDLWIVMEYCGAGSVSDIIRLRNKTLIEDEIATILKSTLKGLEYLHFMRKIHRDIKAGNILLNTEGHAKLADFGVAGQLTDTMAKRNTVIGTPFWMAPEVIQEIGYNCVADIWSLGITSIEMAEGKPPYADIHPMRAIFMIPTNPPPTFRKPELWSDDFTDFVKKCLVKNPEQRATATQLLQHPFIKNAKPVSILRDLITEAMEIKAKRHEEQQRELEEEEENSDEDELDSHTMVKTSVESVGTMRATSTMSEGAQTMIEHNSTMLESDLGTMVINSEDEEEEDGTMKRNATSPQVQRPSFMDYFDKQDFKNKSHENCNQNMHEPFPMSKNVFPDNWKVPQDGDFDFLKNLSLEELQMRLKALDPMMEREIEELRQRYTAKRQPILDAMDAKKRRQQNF

The next assay has as its target T4, DRAK2 (Homo sapiens, UniProt O94768).
T4 sequence (O94768 1-372): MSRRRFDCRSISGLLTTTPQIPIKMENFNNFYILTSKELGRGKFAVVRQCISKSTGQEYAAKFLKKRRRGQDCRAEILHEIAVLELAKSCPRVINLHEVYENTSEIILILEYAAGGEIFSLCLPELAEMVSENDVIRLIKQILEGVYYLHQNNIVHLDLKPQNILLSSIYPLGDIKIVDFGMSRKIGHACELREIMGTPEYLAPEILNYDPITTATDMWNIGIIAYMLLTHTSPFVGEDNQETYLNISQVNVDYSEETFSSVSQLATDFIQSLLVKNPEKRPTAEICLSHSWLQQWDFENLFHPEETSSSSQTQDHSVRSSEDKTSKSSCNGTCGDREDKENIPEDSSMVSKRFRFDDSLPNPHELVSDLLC

Sequence of CK2a2 (P19784 whole entry): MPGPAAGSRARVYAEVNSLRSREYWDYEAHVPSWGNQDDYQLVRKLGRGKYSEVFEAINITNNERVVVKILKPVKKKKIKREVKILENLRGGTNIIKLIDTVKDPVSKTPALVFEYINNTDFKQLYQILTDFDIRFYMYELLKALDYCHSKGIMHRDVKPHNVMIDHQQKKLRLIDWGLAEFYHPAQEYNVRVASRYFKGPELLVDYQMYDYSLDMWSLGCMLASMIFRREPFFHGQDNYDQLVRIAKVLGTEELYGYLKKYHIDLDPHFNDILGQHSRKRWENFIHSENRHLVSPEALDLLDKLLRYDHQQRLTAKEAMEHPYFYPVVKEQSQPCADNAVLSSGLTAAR
Sequence of CHK2 (O96017 whole entry): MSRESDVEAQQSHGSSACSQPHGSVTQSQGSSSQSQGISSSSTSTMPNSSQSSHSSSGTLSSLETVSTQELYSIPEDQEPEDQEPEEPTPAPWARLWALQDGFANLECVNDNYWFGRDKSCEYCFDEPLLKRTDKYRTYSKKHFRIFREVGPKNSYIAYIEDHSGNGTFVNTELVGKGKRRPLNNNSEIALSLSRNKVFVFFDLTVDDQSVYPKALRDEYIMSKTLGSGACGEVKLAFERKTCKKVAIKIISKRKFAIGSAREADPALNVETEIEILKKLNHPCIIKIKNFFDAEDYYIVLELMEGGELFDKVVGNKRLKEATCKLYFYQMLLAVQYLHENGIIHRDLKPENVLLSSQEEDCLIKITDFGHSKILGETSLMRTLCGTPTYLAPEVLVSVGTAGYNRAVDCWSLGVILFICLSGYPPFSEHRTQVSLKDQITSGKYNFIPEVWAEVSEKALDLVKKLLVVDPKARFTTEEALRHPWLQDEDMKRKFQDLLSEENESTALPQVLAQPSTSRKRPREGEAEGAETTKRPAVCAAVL
Sequence of CK1d (P48730 whole entry): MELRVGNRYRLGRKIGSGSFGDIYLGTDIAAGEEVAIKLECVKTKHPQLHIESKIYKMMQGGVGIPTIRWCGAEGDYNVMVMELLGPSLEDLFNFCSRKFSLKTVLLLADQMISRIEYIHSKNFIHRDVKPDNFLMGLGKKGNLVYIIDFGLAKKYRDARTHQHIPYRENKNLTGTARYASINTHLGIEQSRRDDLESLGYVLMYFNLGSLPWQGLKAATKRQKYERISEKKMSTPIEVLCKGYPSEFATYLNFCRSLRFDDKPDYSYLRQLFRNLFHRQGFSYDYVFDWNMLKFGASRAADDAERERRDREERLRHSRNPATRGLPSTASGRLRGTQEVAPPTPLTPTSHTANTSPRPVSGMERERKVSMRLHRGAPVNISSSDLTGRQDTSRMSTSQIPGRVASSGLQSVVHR
Sequence of JNK2 (P45984 whole entry): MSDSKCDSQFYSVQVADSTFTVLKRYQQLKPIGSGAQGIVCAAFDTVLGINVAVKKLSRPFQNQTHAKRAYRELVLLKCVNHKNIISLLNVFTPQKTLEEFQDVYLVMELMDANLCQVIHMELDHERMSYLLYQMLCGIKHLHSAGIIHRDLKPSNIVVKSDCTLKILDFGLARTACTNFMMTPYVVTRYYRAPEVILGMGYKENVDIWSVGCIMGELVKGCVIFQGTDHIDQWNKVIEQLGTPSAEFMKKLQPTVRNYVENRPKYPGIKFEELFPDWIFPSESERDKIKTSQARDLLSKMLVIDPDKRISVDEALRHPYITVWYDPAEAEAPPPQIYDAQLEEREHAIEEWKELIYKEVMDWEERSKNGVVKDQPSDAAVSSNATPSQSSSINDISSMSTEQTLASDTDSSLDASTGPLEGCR
Sequence of MAPKAPK2 (P49137 whole entry): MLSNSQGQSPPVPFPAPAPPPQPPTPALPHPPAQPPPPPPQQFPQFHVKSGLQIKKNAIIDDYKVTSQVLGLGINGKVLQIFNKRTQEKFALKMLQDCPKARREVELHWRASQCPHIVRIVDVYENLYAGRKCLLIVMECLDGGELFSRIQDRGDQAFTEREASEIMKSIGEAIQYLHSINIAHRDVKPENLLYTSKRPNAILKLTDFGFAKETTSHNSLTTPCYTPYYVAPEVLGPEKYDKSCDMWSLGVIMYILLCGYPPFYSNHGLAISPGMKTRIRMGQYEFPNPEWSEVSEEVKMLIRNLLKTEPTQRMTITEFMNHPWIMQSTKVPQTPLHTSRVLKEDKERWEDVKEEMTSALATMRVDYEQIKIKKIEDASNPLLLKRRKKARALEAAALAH
Sequence of CLK1 (P49759 whole entry): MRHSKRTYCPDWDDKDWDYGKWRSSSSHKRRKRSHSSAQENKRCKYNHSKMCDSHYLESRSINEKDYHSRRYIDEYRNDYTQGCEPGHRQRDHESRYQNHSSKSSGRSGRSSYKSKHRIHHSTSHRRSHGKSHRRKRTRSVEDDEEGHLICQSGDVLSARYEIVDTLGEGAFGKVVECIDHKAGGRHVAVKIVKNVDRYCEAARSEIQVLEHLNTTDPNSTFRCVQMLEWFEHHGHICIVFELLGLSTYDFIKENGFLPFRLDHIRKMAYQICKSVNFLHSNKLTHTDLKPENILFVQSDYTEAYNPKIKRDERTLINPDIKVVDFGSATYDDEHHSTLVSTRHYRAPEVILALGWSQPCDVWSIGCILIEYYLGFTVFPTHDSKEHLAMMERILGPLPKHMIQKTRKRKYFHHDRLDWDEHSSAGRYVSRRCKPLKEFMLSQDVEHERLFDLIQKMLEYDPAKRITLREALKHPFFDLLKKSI
Sequence of EphA5 (P54756 whole entry): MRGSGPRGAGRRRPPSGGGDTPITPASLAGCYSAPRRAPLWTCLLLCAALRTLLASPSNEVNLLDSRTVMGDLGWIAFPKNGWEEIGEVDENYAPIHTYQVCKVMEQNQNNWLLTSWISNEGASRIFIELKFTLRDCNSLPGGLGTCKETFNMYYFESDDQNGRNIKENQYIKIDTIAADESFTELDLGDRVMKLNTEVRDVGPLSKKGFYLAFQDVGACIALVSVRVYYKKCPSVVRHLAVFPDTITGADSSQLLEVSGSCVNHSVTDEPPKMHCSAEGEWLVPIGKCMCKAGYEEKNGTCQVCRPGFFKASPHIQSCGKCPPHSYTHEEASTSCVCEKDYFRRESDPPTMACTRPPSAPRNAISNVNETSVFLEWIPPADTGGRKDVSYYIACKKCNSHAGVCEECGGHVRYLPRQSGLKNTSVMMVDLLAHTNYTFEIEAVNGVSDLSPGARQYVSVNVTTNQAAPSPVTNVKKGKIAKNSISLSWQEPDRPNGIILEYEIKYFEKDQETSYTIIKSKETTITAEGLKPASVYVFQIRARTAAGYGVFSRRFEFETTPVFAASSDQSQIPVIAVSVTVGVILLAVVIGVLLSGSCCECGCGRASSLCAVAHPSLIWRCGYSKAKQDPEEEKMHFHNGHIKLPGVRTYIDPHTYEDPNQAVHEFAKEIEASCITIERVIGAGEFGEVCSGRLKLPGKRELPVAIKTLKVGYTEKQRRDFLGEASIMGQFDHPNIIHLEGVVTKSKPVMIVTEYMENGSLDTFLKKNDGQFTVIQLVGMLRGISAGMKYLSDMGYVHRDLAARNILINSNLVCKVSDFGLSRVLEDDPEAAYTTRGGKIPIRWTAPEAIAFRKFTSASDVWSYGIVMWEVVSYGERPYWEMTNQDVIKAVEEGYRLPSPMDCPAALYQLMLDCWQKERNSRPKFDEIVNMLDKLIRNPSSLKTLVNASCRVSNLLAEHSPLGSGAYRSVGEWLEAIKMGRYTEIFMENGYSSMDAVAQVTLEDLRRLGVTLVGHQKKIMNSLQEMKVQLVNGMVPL

With `CNc1ncc2cc(-c3ccc(-c4cccc(C)n4)cc3Cl)c(=O)n(CCCCN)c2n1` [compound 20, MRLW5], the “ΔTm MRLW5 (20)” value was 0.3 °C on JNK2; 2.8 °C on CHK2; 0.3 °C at CLK1; -1.0 °C on MYT1; -1.2 °C on PIM3; 4.6 °C on NEK2. The “ΔTm MRLW5 (20)” value at MAPKAPK2 is 0.0 °C; at MST2, 7.9 °C; on EphA5, 3.3 °C; on CK2a2, -0.6 °C; at DRAK2 it was 0.7 °C; on BRD4 it was -0.7 °C. Moreover, the “ΔTm MRLW5 (20)” value is -1.0 °C on DYRK1A and 0.8 °C at CK1d.
Turning to `CNc1ncc2cc(-c3ccc(-c4cccc(C)n4)cc3Cl)c(=O)n(CCC3CCNCC3)c2n1` [compound 22, 6-(2-Chloro-4-(6-methylpyridin-2-yl)phenyl)-2-(methylamino)-8-(2-(piperidin-4-yl)ethyl)pyrido[2,3-d]pyrimidin-7(8H)-one], the “ΔTm 22” value at JNK2 was 0.3 °C; on CHK2, 3.0 °C; at CLK1, -1.6 °C; at MYT1 it was -4.0 °C; at PIM3, -1.2 °C; at NEK2, 6.6 °C. Moreover, the “ΔTm 22” value on MAPKAPK2 is -0.1 °C; at MST2 it was 8.0 °C; at EphA5, 4.1 °C; on CK2a2 it was -1.4 °C; at DRAK2 it was 2.7 °C; on BRD4, 0.0 °C. In addition, the “ΔTm 22” value on DYRK1A was determined as 0.5 °C; on CK1d, 2.1 °C.
As to `CNc1ncc2cc(-c3ccc(-c4cccc(C)n4)cc3Cl)c(=O)n(C[C@H]3CC[C@H](N)CC3)c2n1` [compound 23, 23], the “ΔTm 23” value at JNK2 was 1.3 °C; at CHK2, 4.6 °C; on CLK1, 0.8 °C; on MYT1, -0.9 °C; on PIM3, 0.3 °C; at NEK2 it was 6.9 °C. The “ΔTm 23” value is -0.9 °C on MAPKAPK2; 10.8 °C on MST2; 4.0 °C on EphA5; -0.9 °C on CK2a2; 1.7 °C at DRAK2; -1.1 °C on BRD4. In addition, the “ΔTm 23” value at DYRK1A is -0.3 °C; on CK1d it was 2.3 °C.
As for `Cc1cccc(-c2ccc(-c3cc4cnc(NC(CO)CO)nc4n(CCCCN)c3=O)c(Cl)c2)n1` [compound 24, 8-(4-Aminobutyl)-6-(2-chloro-4-(6-methylpyridin-2-yl)phenyl)-2-((1,3-dihydroxypropan-2-yl)amino)pyrido[2,3-d]pyrimidin-7(8H)-one], the “ΔTm MR24 (24)” value on JNK2 is 0.4 °C; on CHK2, 2.0 °C; on CLK1, -0.4 °C; on MYT1 it was -2.0 °C; at PIM3, -1.9 °C; on NEK2, 5.6 °C. Also, the “ΔTm MR24 (24)” value on MAPKAPK2 is -0.1 °C; at MST2 it was 4.9 °C; on EphA5, -0.4 °C; on CK2a2, -2.0 °C; on DRAK2 it was 2.9 °C; at BRD4, -1.7 °C. Besides, the “ΔTm MR24 (24)” value came to 0.1 °C on DYRK1A and 1.2 °C on CK1d.
Consider `Cc1cccc(-c2ccc(-c3cc4cnc(NCCCc5ccc(N)cc5)nc4n(CCCCN)c3=O)c(Cl)c2)n1` [compound 25, 8-(4-Aminobutyl)-2-((3-(4-aminophenyl)propyl)amino)-6-(2-chloro-4-(6-methylpyridin-2-yl)phenyl)pyrido[2,3-d]pyrimidin-7(8H)-one], for which the “ΔTm 25” value was 2.6 °C at JNK2; 8.5 °C at CHK2; 1.4 °C on CLK1; -2.3 °C on MYT1; -0.8 °C at PIM3; 8.8 °C at NEK2. Also, the “ΔTm 25” value on MAPKAPK2 is -0.6 °C; at MST2, 9.4 °C; on EphA5 it was 3.2 °C; on CK2a2, -1.9 °C; on DRAK2 it was 7.5 °C; at BRD4, -2.9 °C. Moreover, the “ΔTm 25” value is -0.1 °C at DYRK1A and 3.1 °C on CK1d.
Consider `Cc1cccc(-c2ccc(-c3cc4cnc(NCCCN5CCOCC5)nc4n(CCCCN)c3=O)c(Cl)c2)n1` [compound 26, MR26], for which the “ΔTm MR26 (26)” value is 0.0 °C on JNK2; 3.3 °C at CHK2; -0.1 °C at CLK1; -1.1 °C on MYT1; -0.1 °C at PIM3; 5.9 °C at NEK2. Besides, the “ΔTm MR26 (26)” value is -0.2 °C at MAPKAPK2; 7.7 °C on MST2; 3.5 °C on EphA5; -1.0 °C on CK2a2; 5.1 °C at DRAK2; -1.2 °C at BRD4. In addition, the figures for the “ΔTm MR26 (26)” value at DYRK1A and on CK1d were -0.3 °C and 1.9 °C, respectively.
